ChEMBL document CHEMBL3351947, “Isolation of pyrrolocins A-C: cis- and trans-decalin tetramic acid antibiotics from an endophytic fungal-derived pathway” (J Nat Prod, 2014)

What was measured:
[1] = system: Mycobacterium tuberculosis; experiment: Antimicrobial activity against Mycobacterium tuberculosis H37Ra after 4 days by MTT assay; type: functional, organism-based; conditions: 96 h
[2] = Cytotoxicity against human CEM-TART cells after 4 days by MTT assay; type: cell-based; conditions: 96 h

Row | SMILES | IC50 [1] [µM] | IC50 [2] [µM]
1 | CC1=C[C@H]2C[C@@H](C)CC[C@@H]2[C@@](C)(C(=O)C2=C(O)[C@@H](CO)NC2=O)[C@H]1/C=C/C=C/C[C@@H](C)O | 56.4 | 113
2 | CC1=C[C@H]2C[C@@H](C)CC[C@@H]2[C@@](C)(C(=O)C2=C(O)[C@@H](CO)N(C)C2=O)[C@H]1/C=C/C=C/C[C@@H](C)O | 26.3 | 76.6
3 | CC1=C[C@@H]2C[C@@H](C)CC[C@@H]2[C@@](C)(C(=O)C2=C(O)[C@@H](CO)NC2=O)[C@@H]1/C=C/C=C/C[C@@H](C)O | 113 | 167
4 | CO[C@H]1/C=C/O[C@@]2(C)Oc3c(C)c(O)c4c(O)c(c(/C=N/N5CCN(C)CC5)c(O)c4c3C2=O)NC(=O)/C(C)=C\C=C\[C@H](C)[C@H](O)[C@@H](C)[C@@H](O)[C@@H](C)[C@H](OC(C)=O)[C@@H]1C [RIFAMPIN] | 0.152 | –
